Data from PMC11695783 (Frontiers in Pharmacology, 2024).
Several values for one entry are separate records, joined by “and”; a condition that tells them apart may be missing. Equal values may be shown once.

Experiments:
[1] = test system: Mycoplasma pneumoniae-infected mice (lung tissue); assay: Histopathological assessment of lung tissue (HPS, response and recovery rates) in M. pneumoniae-infected mice; type: in vivo, BALB/c mice; design: HPS value (mean) / HPS: scale not given here; conditions: for HPS: individual mice
Description: Adult BALB/c mice (20–22 g) were divided into a control group, a positive group, and compound 16C groups at low (20 mg/kg), medium (40 mg/kg), and high-dose (80 mg/kg) levels and oral and intramuscular tiamulin treatment groups (40 mg/kg). We formulated the above dose range based on the dose at which tiamulin was approved for injection (10–20 mg/kg) and the dose previously reported (45 mg/kg) ([EMA, 1999]; [Xiao et al., 2016]). In summary, we selected similar doses for compound 16C in vivo study. 40 mg/kg was used as an intermediate value, one-half of it as a low dose, and two times of it as a high dose. To prepare the challenge solution, logarithmic phase culture suspensions were centrifuged at 1700 g for 10 min, and the pellets were suspended in sterile PBS to obtain 1 × 10^9 CFU/mL. Before the challenge, mice were anesthetized with tribromoethanol (250 mg/kg, IP). Mice in the control groups were intratracheally inoculated with sterile PBS, whereas mice in the other groups were intratracheally challenged with 50 μL (1 × 10^9 CFU/mL) M. pneumoniae suspension once a day for 3 days. Compound 16C and tiamulin (tiamulin-IM group) dissolved using the method mentioned in pharmacokinetic studies, and the tiamulin fumarate soluble powder was dissolved in ddH2O for oral administration. After the final challenge, antibiotics were administered at low, medium, and high-dose levels (see above) at 10 a.m. and 10 p.m. daily for 4 consecutive days. Normal saline containing 5% DMSO and 5% Tween-80 was administered as control and positive groups by thigh intramuscular injection. To compare the efficacy of compound 16C and tiamulin under the same route of administration, we used the original tiamulin for intramuscular administration in the same formulation. On the other hand, tiamulin fumarate soluble powder, approved for oral administration to treat animal mycoplasma diseases in China, was administered to mice by gavage. Based on a clinical study of lefamulin in community-acquired bacterial pneumonia (CABP), subjects were administered twice a day and the 96 ± 24 h of starting treatment was an essential point for early clinical response (ECR) ([Paukner et al., 2022]). We therefore stopped treatment at 96 h and sampled at 192 h to explore whether the disease worsened after cessation of treatment. Bronchoalveolar lavage fluid (BALF) and lungs were collected at 0, 96, 192 h (Samples of 0 h were collected before starting treatment, and mice were fed ad libitum without drug treatment during 96–192 h) after the first dose, BALF for cytokine and cytological analysis and lung for histopathological evaluation.
Lung tissues were collected at 0, 96, and 192 h following drug administration. Lungs were collected from 6 mice in each group at 96 h and 13–15 mice in each group at 192 h. In addition, the lungs of 8 untreated infected mice were taken at 0 h as initial controls. Lung tissues were fixed in 4% paraformaldehyde, and whole-mount sections of paraffin-embedded lungs were stained with hematoxylin and eosin (H&E). The histopathologic score (HPS) was determined according to published protocols by a single pathologist who was unaware of the treatment status and groups of the animals ([Cimolai et al., 1992]). The HPS was based on individual grading of peribronchiolar/bronchial infiltrate, bronchiolar/bronchial luminal exudate, perivascular infiltrate, and parenchymal pneumoniae.

[2] = test system: Mycoplasma pneumoniae strain M129 (ATCC 29342); assay: Time-kill curves; type: cell-based; design: M. pneumoniae count in time-kill curve: unit not given here
Method in brief: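 Strain grown at 37 °C, 5% CO2 in modified SP-4 broth (pH 7.4, 20% FBS). Cultures incubated 72 h, sampled every 12 h, 10-fold serially diluted and plated on SP-4 agar; colonies counted after 7 d. Three repeats.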

[3] = M. pneumoniae-infected mice, 20mg/kg, intramuscular, n=13-15
[4] = M. pneumoniae-infected mice, 40mg/kg, intramuscular, n=13-15
[5] = M. pneumoniae-infected mice, 80mg/kg, intramuscular, n=13-15
[6] = compound 16C 20 mg/kg IM, 192 h
[7] = compound 16C 40 mg/kg IM, 192 h
[8] = compound 16C 40 mg/kg IM, from HPS at 192 h
[9] = compound 16C 80 mg/kg IM, 192 h
[10] = compound 16C 80 mg/kg IM, from HPS at 192 h

## C=CC1(C)CC(OC(=O)CSc2ccc(NC(=O)Cc3ccc([N+](=O)[O-])cc3)cc2)C2(C)C(C)CCC3(CCC(=O)C32)C(C)C1O (stereo not drawn) [compound 16C, 22–((4-((4-nitrophenyl)acetamido)phenyl)thio)deoxypleuromutilin]
[1]; [3]
  Recovery: 20.00%
  Response: 93.33%
[1]; [4]
  Recovery: 35.7%
  Response: 100%
[1]; [5]
  Recovery: 50%
  Response: 100%
[1]; compound 16C 20 mg/kg IM, 96 h
  HPS value (mean): 1.08
  HPS: 0.5 and 1 and 1.5
[1]; [6]
  HPS value (mean): 1
  HPS: 1 and 0 and 4 and 0.5 and 1.5
[1]; compound 16C 20 mg/kg IM, from HPS at 192 h (HPS reduced to 0)
  Recovery: 20.00%
[1]; compound 16C 20 mg/kg IM, from HPS at 192 h (HPS reduced to 0), listed as Compound16C
  Recovery: 20%
[1]; compound 16C 20 mg/kg IM, from HPS at 192 h, n = 13–15
  Response: 93.33%
[1]; compound 16C 40 mg/kg IM, 96 h
  HPS value (mean): 1
  HPS: 1 and 1.5 and 0
[1]; [7]
  HPS value (mean): 0.46
  HPS: 0.5 and 0 and 2 and 1
[1]; [8]
  Recovery: 35.7%
  Response: 100%
[1]; compound 16C 80 mg/kg IM, 96 h
  HPS value (mean): 0.75
  HPS: 0.5 and 0 and 1
[1]; [9]
  HPS value (mean): 0.43
  HPS: 0 and 0.5 and 1 and 1.5
[1]; [10]
  Recovery: 50%
  Response: 100%
[2]; 1×MIC, time 0
  M. pneumoniae count in time-kill curve: 7.809
[2]; 1×MIC, time 12
  M. pneumoniae count in time-kill curve: 7.011
[2]; 1×MIC, time 24
  M. pneumoniae count in time-kill curve: 6.5256
[2]; 1×MIC, time 36
  M. pneumoniae count in time-kill curve: 6.341
[2]; 1×MIC, time 48
  M. pneumoniae count in time-kill curve: 6.63
[2]; 1×MIC, time 60
  M. pneumoniae count in time-kill curve: 6.334
[2]; 1×MIC, time 72
  M. pneumoniae count in time-kill curve: 5.5397
[2]; 1–4 × MIC, 72 h
  reduction of bacterial counts: 2.27–2.60 log10 CFU/mL
[2]; 2×MIC, time 0
  M. pneumoniae count in time-kill curve: 7.809
[2]; 2×MIC, time 12
  M. pneumoniae count in time-kill curve: 6.901
[2]; 2×MIC, time 24
  M. pneumoniae count in time-kill curve: 6.35
[2]; 2×MIC, time 36
  M. pneumoniae count in time-kill curve: 6.074
[2]; 2×MIC, time 48
  M. pneumoniae count in time-kill curve: 6.197
[2]; 2×MIC, time 60
  M. pneumoniae count in time-kill curve: 5.9
[2]; 2×MIC, time 72
  M. pneumoniae count in time-kill curve: 5.211
[2]; 4×MIC, time 0
  M. pneumoniae count in time-kill curve: 7.247
[2]; 4×MIC, time 12
  M. pneumoniae count in time-kill curve: 6.539
[2]; 4×MIC, time 24
  M. pneumoniae count in time-kill curve: 6.026
[2]; 4×MIC, time 36
  M. pneumoniae count in time-kill curve: 5.763
[2]; 4×MIC, time 48
  M. pneumoniae count in time-kill curve: 5.628
[2]; 4×MIC, time 60
  M. pneumoniae count in time-kill curve: 5.61
[2]; 4×MIC, time 72
  M. pneumoniae count in time-kill curve: 4.889
[2]; 8×MIC, time 0
  M. pneumoniae count in time-kill curve: 7.429
[2]; 8×MIC, time 12
  M. pneumoniae count in time-kill curve: 7.7
[2]; 8×MIC, time 24
  M. pneumoniae count in time-kill curve: 5.719
[2]; 8×MIC, time 36
  M. pneumoniae count in time-kill curve: 4.474
[2]; 8×MIC, time 48
  M. pneumoniae count in time-kill curve: 3.799
[2]; 8×MIC, time 60
  M. pneumoniae count in time-kill curve: 3
[2]; 8×MIC, time 72
  M. pneumoniae count in time-kill curve: 3.001
[2]; 16×MIC, time 0
  M. pneumoniae count in time-kill curve: 7.247
[2]; 16×MIC, time 12
  M. pneumoniae count in time-kill curve: 7.508
[2]; 16×MIC, time 24
  M. pneumoniae count in time-kill curve: 4.094
[2]; 16×MIC, time 36
  M. pneumoniae count in time-kill curve: 3.774
[2]; 16×MIC, time 48
  M. pneumoniae count in time-kill curve: 3.36
[2]; 16×MIC, time 60
  M. pneumoniae count in time-kill curve: 2.9656
[2]; 16×MIC, time 72
  M. pneumoniae count in time-kill curve: 2.848
[2]; 32×MIC, time 0
  M. pneumoniae count in time-kill curve: 7.065
[2]; 32×MIC, time 12
  M. pneumoniae count in time-kill curve: 6.342
[2]; 32×MIC, time 24
  M. pneumoniae count in time-kill curve: 6.583
[2]; 32×MIC, time 36
  M. pneumoniae count in time-kill curve: 4.407
[2]; 32×MIC, time 48
  M. pneumoniae count in time-kill curve: 3.894
[2]; 32×MIC, time 60
  M. pneumoniae count in time-kill curve: 3.568
[2]; 32×MIC, time 72
  M. pneumoniae count in time-kill curve: 2.774
[2]; 64 × MIC, 72 h exposure
  number of organisms (decreased to the LOD): 2 log10 CFU/mL
[2]; 64×MIC, time 0
  M. pneumoniae count in time-kill curve: 7.065
[2]; 64×MIC, time 12
  M. pneumoniae count in time-kill curve: 5.938
[2]; 64×MIC, time 24
  M. pneumoniae count in time-kill curve: 5.724
[2]; 64×MIC, time 36
  M. pneumoniae count in time-kill curve: 3.5819
[2]; 64×MIC, time 48
  M. pneumoniae count in time-kill curve: 3.199
[2]; 64×MIC, time 60
  M. pneumoniae count in time-kill curve: 2.961
[2]; 64×MIC, time 72
  M. pneumoniae count in time-kill curve: 2
[2]; static time-kill, 72 h
  concentration at which bactericidal effect was achieved: ≥ 8 × MIC
[2]; ≥ 8×MIC, 72 h
  reduction of bacterial counts: > 3 log10 CFU/mL
